These results are taken from patent US8252832B2, “Kinesin inhibitors as cancer therapeutics” (Novartis AG, priority 2007, dated 2012).

The subject of assay [1] is human multiple myeloma KMS-11-luc tumor xenografts. As to the kind of experiment: Subcutaneous KMS-11-luc tumor xenograft model, tumor response. It counts as in vivo, mouse. How it is done: Experiments were performed using immunodeficient SCID-Beige female mice approximately 7-8 weeks old (Charles River Laboratories, Wilmington, Mass.). […] Routine animal care and assurance of welfare were as described above.
Human KMS-11-luc multiple myeloma cells were obtained from the laboratory of Suzanne Trudel at the University of Toronto (Ontario, Canada) and tested to be free of Mycoplasma sp. and murine viruses in the IMPACT1 PCR assay panel (RADIL, University of Missouri, Columbia, Mo.). Prior to our receiving this cell line, it had been stably engineered to express luciferase by retroviral transfection of the pGC-gfp/luc vector. KMS-11-luc cells were grown in Iscove's medium supplemented with 2 mmol/L L-glutamine (Mediatech, Inc., Hemdon, Va.) and 10% fetal bovine serum (JRH Biosciences, catalog #12003-1000M). These cells were grown as suspension cultures, maintained at 37° C. in a humidified atmosphere containing 5% carbon dioxide. Cells were cultured for fewer than 10 passages prior to use. Cells were harvested at approximately 2 million cells/mL, and centrifuged at ˜800×g for 5 minutes at 4° C. and then resuspended in a 1:1 mixture of cold Hank's balanced salt solution (HBSS) and Matrigel™ (Mediatech Inc., catalog #21-021-CV; BD Biosciences, catalog #354234, respectively) at a concentration of 50 million cells/mL for implantation subcutaneously (injection volume of 0.2 mL). Alternatively, for the disseminated disease model, cells were prepared only in cold HBSS at a concentration of 100 million cells/mL for intravenous (i.v.) implantation via the tail vein (injection volume of 0.1 mL).
Compound IIa and SB-715992 (free base) were formulated in 20% Captisol for a dose volume of 8 mL/kg. Doses were adjusted to each animal's body weight.
For the efficacy evaluation in the subcutaneous tumor model, 10 million cells combined in a 1:1 mixture of HBSS and Matrigel™ were injected subcutaneously in the right flank in a total volume of […]. […] Tumor volume was calculated as (L×W2)/2. […] Data analysis was as described above.

A further assay deals with KB8.5 tumor xenograft. As to the kind of experiment: KB8.5 tumor xenograft model (P-gp expressing), tumor response. It counts as in vivo, mouse. To be noted: q4d × 3. As for the experimental part: Cells were cultured for fewer than 10 passages prior to use. […] All data were expressed as mean and SEM. Between-groups comparisons for final tumor measurements were performed using the one-way ANOVA pair-wise analysis. Significance was determined using Kruskal-Wallis one-way ANOVA on Ranks, followed by appropriate post-hoc test (Dunn's Method or Tukey Test) for multiple pair-wise comparisons. Statistical analysis was carried out using SigmaStat (Systat Software Inc., San Jose, Calif.).

The test system of another assay is AGS. As to the kind of experiment: CellTiter-Glo proliferation, 72 hours. It counts as cell-based. As to conditions: Homo sapiens, Gastric. The source says:
(§1) Cell lines used were as follows: HCT-116 (National Cancer Institute's DCTF Tumor Repository, catalog #NCI-502568, Rockville, Md.), HCT-15 (National Cancer Institute's DCTF Tumor Repository, catalog#NCI-502711, Rockville, Md. available from American Type Tissue Collection, catalog #CLL-225), KB-3-1 (available from DSMZ, Deutsche Sammlung von Mikroorganismen und Zellkulturen GmbH (German Collection of Microorganisms and Cell Cultures—catalog number ACC 158), KB-V1 (available from DSMZ—catalog number ACC 149), AGS (available from American Type Culture Collection, Manassas Va., catalog number CRL-1739™), N87 (available from American Type Culture Collection, Manassas Va., catalog number CRL-5822), Hel92.1.7 (available from American Type Culture Collection, Manassas Va., catalog number TIB 180), K562 (available from American Type Culture Collection, Manassas Va., catalog number CRL-243™), MV4; 11 (American Tissue Culture Collection, Manassas Va., catalog number CRL-9591) and U937 (available from American Type Culture Collection, Manassas Va., catalog number CRL-1593.2).
(§2) Cells were plated in 96-well plates at densities of about 500 cells per well of a 96-well plate and allowed to grow for 24 hours. The cells were then treated with various concentrations of compounds for 72 hours. Then, 100 μl of CellTiter-Glo® reagent was added (Promega Corporation). CellTiter-Glo® is used in a homogeneous method of determining the number of viable cells using the single CellTiter-Glo® reagent to detect ATP (U.S. Pat. Nos. 6,602,677 and 7,241,584) (see Promega product catalog #G7570). Following the addition of the CellTiter-Glo® reagent, the cells were incubated in the dark for 30 minutes. The amount of luminescence was determined for each well using a Wallac Trilux plate reader, which correlates with the number of cells per well. The number of viable cells in the wells that receive only DMSO (0.5%) served as an indication of 0% inhibition, while wells without cells served as 100% inhibition of cell growth. […] This broad activity is consistent with a compound that is a mitotic inhibitor.
For orientation: In ATP-based viability assays light output follows the ATP content of the culture.

In a further assay the test system is HCT-116. As to the kind of experiment: CellTiter-Glo proliferation, 72 hours. To be noted: Homo sapiens; Colon, HCT-116, 72 hours. It counts as cell-based.
From the text: as §1, §2

The next assay relates to HCT-15. As to the kind of experiment: CellTiter-Glo proliferation, 72 hours. It counts as cell-based. As to conditions: Homo sapiens; Colon, HCT-15, 72 hours.
From the text: as §1, §2

For another assay, the system named is Hel92.1.7. As to the kind of experiment: CellTiter-Glo proliferation, 72 hours. To be noted: Homo sapiens, HEL 92.1.7; Leukemia, Hel92.1.7, 72 hours. It counts as cell-based.
From the text: as §1, §2

The test system of a further assay is K562. Nature of the assay: CellTiter-Glo proliferation, 72 hours. It counts as cell-based. As to conditions: Homo sapiens; Leukemia, K562, 72 hours.
From the text: as §1, §2

In the next assay the test system is KB3.1. As to the kind of experiment: CellTiter-Glo proliferation, 72 hours. It counts as cell-based. As to conditions: Homo sapiens, KB 3-1; Epidermoid, KB3.1, 72 hours.
From the text: as §1, §2

The next assay relates to KBV1. Nature of the assay: CellTiter-Glo proliferation, 72 hours. It counts as cell-based. To be noted: Homo sapiens, KB-V1; Epidermoid, KBV1, 72 hours.
From the text: as §1, §2

For a further assay, the system named is MV4-11. As to the kind of experiment: CellTiter-Glo proliferation, 72 hours. It counts as cell-based. To be noted: Homo sapiens; Leukemia, MV4-11, 72 hours.
From the text: as §1, §2

Another assay concerns N87. Nature of the assay: CellTiter-Glo proliferation, 72 hours. It counts as cell-based. As to conditions: Gastric, N87, 72 hours.
From the text: as §1, §2

A further assay relates to U937. As to the kind of experiment: CellTiter-Glo proliferation, 72 hours. It counts as cell-based. As to conditions: Homo sapiens, U-937; Leukemia, U937, 72 hours.
From the text: as §1, §2

Where “and” joins values, the source holds several entries; their conditions need not be identical. Equal values may be shown once. Marks after values point to notes of the source that are not given here.

Consider `Cc1ccc(C(=O)N(CCCN)[C@@H](c2nc3cc(Cl)ccc3c(=O)n2Cc2ccccc2)C(C)C)cc1` [SB-715992, Ispinesib, reference compound], for which the “Δ Tumor volume, Day 31” value in assay [1] (7.5 mg/kg, Q4d × 3, i.v.) is on record as −46 ± 19 mm^3. In addition, the “Max. % Regression (Day)” value in assay [1] (7.5 mg/kg, Q4d × 3, i.v., D14) is 49% and 49, (D14) %. Moreover, the “ΔT/ΔC, Day 11 (%)” value was 56% in the assay with KB8.5 tumor xenograft (15 mg/kg, i.v.); 77% in the assay on KB8.5 tumor xenograft (Table 14 study, 15 mg/kg, i.v.); 60% in the assay with KB8.5 tumor xenograft (Table 15 study, 15 mg/kg, i.v., not statistically different from vehicle).

Consider `CC(C)(C)[C@H](c1nc(-c2cc(F)ccc2F)cn1Cc1ccccc1)N(CC[C@H](N)CF)C(=O)CO` [Compound IIa], for which the GI50 (in general, the concentration giving 50% growth inhibition) in the assay on AGS was 0.2 nM; with HCT-116 it was 0.1 nM; in the assay on HCT-15 it was 0.3 nM; with Hel92.1.7, 0.5 nM; with K562, 0.1 nM; in the assay on KB3.1 it was 0.6 nM. Further, the GI50 in the assay on KBV1 turned out to be 6.5 nM; with MV4-11 it was 0.2 nM; in the assay on N87, 1 nM; in the assay with U937, 0.1 nM. Further, the “T/C, Day 31 (%)” value in assay [1] (0.25 mg/kg, Q4d × 3, i.v) is 25%; in assay [1] (0.5 mg/kg, Q4d × 3, i.v), 10%; in assay [1] (1 mg/kg, Q4d × 3, i.v), 0.1* %. The “Δ Tumor volume, Day 31” value stood at 527 ± 152 mm^3 in assay [1] (0.25 mg/kg, Q4d × 3, i.v); 221 ± 71 mm^3 in assay [1] (0.5 mg/kg, Q4d × 3, i.v); 1.5 ± 26 mm^3 in [1] (1 mg/kg, Q4d × 3, i.v). In addition, the “Max. % Regression (Day)” value in [1] (0.25 mg/kg, Q4d × 3, i.v, D7) is given as 24 (D7) %; in [1] (0.5 mg/kg, Q4d × 3, i.v, D10) it was 42 (D10) %; in [1] (1 mg/kg, Q4d × 3, i.v, D17, listed as COMPOUND IIa), 56 (D17) %; in assay [1] (1 mg/kg, Q4d × 3, i.v, D17, listed as compound IIa), 56%. In addition, in the assay on KB8.5 tumor xenograft (5 mg/kg, i.v.), the “ΔT/ΔC, Day 11 (%)” value was determined as 19%.

Turning to `CC(=O)O[C@H]1C(=O)[C@@]2(C)[C@H]([C@H](OC(=O)c3ccccc3)[C@]3(O)C[C@H](OC(=O)[C@H](O)[C@@H](NC(=O)c4ccccc4)c4ccccc4)C(C)=C1C3(C)C)[C@]1(OC(C)=O)CO[C@@H]1C[C@@H]2O` [Paclitaxel, reference compound], the “T/C, Day 31 (%)” value in assay [1] (30 mg/kg, Q4d × 3, i.p.) was determined as 30%. Moreover, the “Δ Tumor volume, Day 31” value in [1] (30 mg/kg, Q4d × 3, i.p.) came to 640 ± 190 mm^3. Besides, the “Max. % Regression (Day)” value in assay [1] (30 mg/kg, Q4d × 3, i.p., D3) is listed as 5 (D3) %. Also, the “ΔT/ΔC, Day 11 (%)” value is 78% with KB8.5 tumor xenograft (30 mg/kg, i.p.); 87% in the assay with KB8.5 tumor xenograft (Table 14 study, 30 mg/kg, i.p.); 60% in the assay on KB8.5 tumor xenograft (Table 15 study, 30 mg/kg, i.p., not statistically different from vehicle).
